Experiments:
TNF production [1] = experiment: Inhibition of LPS-stimulated TNF production in the mouse macrophage line RAW 264.7 (ELISA); assay type: cell-based; conditions: RAW cells; for inhibition at 10 µM: LPS 10 ng/mL, read-out: inhibition of LPS-stimulated TNF secretion; for inhibition at 10 µM / effectiveness against LPS-stimulated TNF production (in words): drug 10 µM; for activity at 10 µM: RAW264.7, 6 h, read-out: TNF LEVEL % Control (LPS alone), Ave. ± S.D.; for activity at 10 µM / TNF LEVEL % Control (LPS alone); Ave. ± S.D.: DRUG [10 µM], LPS at 10 ng/mL
Method: Cells were passaged at confluence by scraping and routinely plated at a density of 0.25 x 10^6 and 0.5 x 10^6 cells per T-75 and T-150, respectively.
Typically, RAW cells were plated at 0.25 x 10^6 cells per well of a 24-well plate, in 0.5 mL media per well on the day prior to experimentation. […] 1%. Drugs were co-administered with the stimulant, LPS. After a 6-hr incubation period with LPS ± drug (n = 3-4), the media from the experimental wells was harvested, the cells were removed by microcentrifugation, and the media assayed for TNF by ELISA. Drugs were screened at 10 µM for their ability to alter TNF production by cells stimulated with 1 µg/mL or 10 ng/mL LPS. Dexamethasone, an anti-inflammatory corticosteroid, served as the reference for inhibition of the LPS response.

TNF production [2] = experiment: Inhibition of LPS-stimulated TNF production in the human monocytic cell line THP-1 (ELISA); assay type: cell-based; conditions: for inhibition at 10 µM / activity at 10 µM: Homo sapiens; for inhibition at 10 µM / effectiveness against LPS-stimulated TNF production (in words): LPS-stimulated THP-1 cells; for inhibition at 10 µM: drug 10 µM, read-out: inhibition of TNF production; for TNF LEVEL % Control (LPS alone); Ave. ± S.D. / activity at 10 µM: THP-1 cells, DRUG [10 µM], LPS 1 µg/mL; for activity at 10 µM: 6 h, read-out: TNF LEVEL % Control (LPS alone), Ave. ± S.D.; for effectiveness against LPS-stimulated TNF production (in words): 10 µM
Method: Cultures were maintained by the addition of fresh growth medium to a T-75 or T-150 flask of cells in suspension, or by pelleting the cells and re-suspending them in the appropriate volume of fresh medium. Maximum cell density was 1.0 x 10^6 cells per mL and cultures were seeded at a minimum density of 0.2 x 10^6 cells per ml.
THP-1 cells were plated into 24-well plates at a density of 1.0 x 10^6 cells per mL in 0.5 mL medium per well. […] For measurement of IL-1α and IL-1β production, THP-1 cells were incubated with 500 ng/mL or 50 ng/mL LPS and incubated for 16 hours. Levels of secreted cytokine were measured in cell supernatants as for TNF. Cell-associated species were measured in cell lysates which were prepared by repetitive freeze-thawing of cells. For in vitro screening, drugs at 10 µM concentration were co-administered with LPS. […] Drug effects on cell viability were assessed by the MTT assay. […] Water-soluble drugs were dissolved in aqueous solutions such as RPMI or deionized H20. The final concentration of DMSO in the incubation medium was at or below 0.01% and that of ethanol was at or below 0. 1%. The effect on cell viability was evaluated by the MTT assay.

**Q.** For O=c1[nH]c2ccccc2n1C1CCN(CCCC(c2ccc(F)cc2)c2ccc(F)cc2)CC1 [pimozide], which inhibition at 10 µM (TNF production [1]; Mus musculus, RAW264.7) is on record?
**A.** 60 to 70%

**Q.** With O=C1c2c(O)cccc2Cc2cccc(O)c21 [dithranol] as the compound, how does the inhibition at 10 µM (TNF production [1]; Mus musculus, RAW264.7) read?
**A.** 67%

**Q.** For CCCCNc1cc(C(=O)O)cc(S(N)(=O)=O)c1Oc1ccccc1 [bumetanide], which “effectiveness against LPS-stimulated TNF production (in words)” value (“effectiveness” below) (TNF production [1]) is on record?
**A.** minimal inhibition

**Q.** How did the inhibition at 10 µM (TNF production [1]; Mus musculus, RAW264.7) turn out when CSc1ccc2c(c1)N(CCC1CCCCN1C)c1ccccc1S2 (stereo not drawn) [thioridazine] was run?
**A.** 60 to 70%

**Q.** How did the inhibition at 10 µM (TNF production [2]) turn out when NCCCCCCNS(=O)(=O)c1cccc2c(Cl)cccc12 [W-7] was run?
**A.** 40 to 50%

**Q.** CN(C)c1nc(N)c(C(=O)N=C(N)N)nc1Cl [dimethylamiloride] was tested. Which “effectiveness” value (TNF production [1]) did it give?
**A.** same extent of inhibition as amiloride

**Q.** Which “TNF LEVEL % Control (LPS alone); Ave. ± S.D.” value (“TNF LEVEL % Control” for short) (TNF production [2]) does the source give for COc1ccc(CCN(C)CCC[C@](C#N)(c2ccc(OC)c(OC)c2)C(C)C)cc1OC [(+)-Verapamil, (+)-verapamil] here?
**A.** 51±2 % Control

**Q.** How did the inhibition at 10 µM (TNF production [2]) turn out when Clc1ccc(C(c2ccc(Cl)cc2)n2cc[n+](CC(OCc3ccc(Cl)cc3Cl)c3ccc(Cl)cc3Cl)c2)cc1 (stereo not drawn) [calmidazolium] was run?
**A.** 40 to 50%

**Q.** Which inhibition at 10 µM (TNF production [1]; Mus musculus, RAW264.7) does the source give for CC/C(=C(\c1ccccc1)c1ccc(OCCN(C)C)cc1)c1ccccc1 [tamoxifen] here?
**A.** ~65%

**Q.** How did the inhibition at 10 µM (TNF production [1]; Mus musculus, RAW264.7) turn out when COc1ccc2c(c1)CCC(c1ccccc1)=C2c1ccc(OCCN2CCCC2)cc1 [nafoxidine] was run?
**A.** ~65%

**Q.** COc1ccc(CCN(C)CCC[C@@](C#N)(c2ccc(OC)c(OC)c2)C(C)C)cc1OC [(-)-Verapamil, (-)-verapamil] was tested. Which “TNF LEVEL % Control” value (TNF production [2]) did it give?
**A.** 53±3 % Control

**Q.** What does the source list for NS(=O)(=O)c1cc(C(=O)O)c(NCc2ccco2)cc1Cl [Furosemide, benzoic acid, 5-(aminosulfonyl)-4-chloro-2-[(2-furanylmethyl)amino]-]?
**A.** activity at 10 µM (TNF production [1]; Mus musculus): 49 ± 4%; inhibition at 10 µM (TNF production [1]; Mus musculus, RAW264.7): ~49%; effectiveness against LPS-stimulated TNF production (in words) (TNF production [1]): comparable to amiloride

**Q.** What does the source list for CC(C)COCC(CN(Cc1ccccc1)c1ccccc1)N1CCCC1 (stereo not drawn) [Bepridil, 1-Pyrrolidieneethanamine, b-[(2-methylpropoxy)methyl]-N-phenyl-N-(phenylmethyl)]?
**A.** activity at 10 µM (TNF production [2]): 77 ± 9%; activity at 10 µM (TNF production [1]; Mus musculus): 40 ± 4%

**Q.** Which activity at 10 µM (TNF production [2]) does the source give for CC(=O)CCCCn1c(=O)c2c(ncn2C)n(C)c1=O [Pentoxifylline, pentoxifylline] here?
**A.** ≥ 100%

**Q.** What about the activity at 10 µM (TNF production [1]; Mus musculus) of the same compound?
**A.** 43 ± 2%

**Q.** And the inhibition at 10 µM (TNF production [1]; Mus musculus, RAW264.7)?
**A.** 57%

**Q.** For COC(=O)C1=C(C)NC(C)=C(C(=O)OC(C)(C)CN(C)CCC(c2ccccc2)c2ccccc2)C1c1cccc([N+](=O)[O-])c1 (stereo not drawn) [Rec 15/2375], which “TNF LEVEL % Control” value (TNF production [2]) is on record?
**A.** 57±15 % Control

**Q.** And the “TNF LEVEL % Control” value (TNF production [1])?
**A.** 33± 1 % Control

**Q.** For COc1ccc([C@@H]2Sc3ccccc3N(CCN(C)C)C(=O)[C@@H]2OC(C)=O)cc1 [Diltiazem, 1,5-Benzothiazepin-4(5H)-one, 3-(acetyloxy)-5-[2-(dimethylamino)ethyl]-2,3-dihydro-2-(4-methoxyphenyl)-, (2S-cis)-], which activity at 10 µM (TNF production [2]) is on record?
**A.** 86 ± 16%

**Q.** And the “effectiveness” value (TNF production [2])?
**A.** much less effective

**Q.** And the activity at 10 µM (TNF production [1]; Mus musculus)?
**A.** 47 ± 1%

**Q.** CC(=O)S[C@@H]1CC2=CC(=O)CC[C@]2(C)[C@H]2CC[C@@]3(C)[C@@H](CC[C@@]34CCC(=O)O4)[C@H]12 [Spironolactone, spironolactone] was tested. Which activity at 10 µM (TNF production [2]) did it give?
**A.** 54 ± 8%

**Q.** And the inhibition at 10 µM (TNF production [2])?
**A.** 46%

**Q.** What about the “effectiveness” value (TNF production [2]) of the same compound?
**A.** as effective as amiloride

**Q.** Which inhibition at 10 µM (TNF production [2]) does the source give for CCCCOc1cc(CC2CNC(=O)N2)ccc1OC (stereo not drawn) [RO 20-1724] here?
**A.** 55%

**Q.** And the “TNF LEVEL % Control” value (TNF production [2])?
**A.** 45±34 % Control

**Q.** And the IC50 (TNF production [1]; Mus musculus, RAW264.7)?
**A.** 1 to 10 nM

**Q.** What about the inhibition at 10 µM (TNF production [1]; Mus musculus, RAW264.7) of the same compound?
**A.** 47%

**Q.** What about the “TNF LEVEL % Control” value (TNF production [1]) of the same compound?
**A.** 47±23 % Control

**Q.** How did the inhibition at 10 µM (TNF production [1]; Mus musculus, RAW264.7) turn out when Fc1ccc(C(c2ccc(F)cc2)N2CCN(C/C=C/c3ccccc3)CC2)cc1 [flunarizine, Peperizine, 1-[bis(4-fluorophenyl)methyl]-4-(3-phenyl-2-propenyl)-, (E)] was run?
**A.** 63%

**Q.** COC(=O)C1=C(C)NC(C)=C(C(=O)OCCN(C)Cc2ccccc2)C1c1cccc([N+](=O)[O-])c1 (stereo not drawn) [Nicardipine, 3,5-Pyridinedicarboxylic acid, 1,4-dihydro-2,6-dimethyl-4-(3-nitrophenyl)-, methyl 2-[methyl(phenylmethyl)amino]ethyl ester] was tested. Which activity at 10 µM (TNF production [2]) did it give?
**A.** 44 ± 1%

**Q.** What about the inhibition at 10 µM (TNF production [2]) of the same compound?
**A.** 56%

**Q.** And the activity at 10 µM (TNF production [1]; Mus musculus)?
**A.** 59 ± 35%
